Reference: patent US20250340510A1, “Substituted Phenylbenzenesulfonamide Derivatives and Uses Thereof” (Nine Square Therapeutics Corporation, priority 2022, published 2025)

Molecular target: TRPML1 (Homo sapiens, UniProt Q9GZU1)
Assay: Calcium flux in HEK293 overexpressing TRPML1 plasma membrane variant (FLIPR, Calcium 6 dye)
Assay type: cell-based
Settings: HEK293/TRPML1-PM clone A5 cells; 4-parameter logistic fit; read-out: TRPML1 calcium flux (FLIPR) dose response: EC50
Text: Example B1. Calcium Flux in HEK293 Overexpressing TRPML1 Plasma Membrane Variant—Calcium 6 Dye
Cells: HEK293/TRPML1-PM clone A5, clonal cell line containing mutant TRPML1 (both N- and C-terminal dileucine targeting motifs deleted) that localizes to the plasma membrane
Plates: Perkin Elmer Viewplate cat. #6007460, black optically clear, tissue culture treated 384-well plate
Calcium dye: Molecular Devices FLIPR Calcium 6 Assay Kit, cat. #R8190 or Fluo-4 Direct from Thermo Fisher, cat. #F10471
Tips: Molecular Devices 384-well FLIPR Tetra black tips, cat. #9000-0764 Example B1.2 Method
HEK293/TRPML1-PM clone A5 cells were trypsinized from flasks, counted, then diluted in media to 15,000 cells per 25 μL, and seeded into a black, 384-well viewplate, and cultured overnight.
One vial of calcium 6 dye was diluted with 10 mL of assay buffer (HBSS+20 mM HEPES pH 7.4) and 25 μL of the dilution was added per well to the cells.
After incubating for 2 hours at 37° C., the plate was moved to the FLIPR in the read position.
The compounds were diluted in EMEM with 0.125% FBS to 5× concentration and loaded in a 384-well plate according to the desired plate map for the assay, including DMSO alone and carbachol controls, then the plate was moved to the FLIPR in the source 2 position.
A box of tips was placed in the source 1 position within the FLIPR to complete the assay set up.
Once the run was started, an initial baseline fluorescent measurement was performed for 10 seconds (470-495 nm excitation and 515-575 nm emission) prior to adding the compounds.
12.5 μL of 5× test compound, DMSO alone, or carbachol were added via the FLIPR and real-time fluorescence measurements were performed for an additional 170 seconds with 1 read per second.
The data was normalized to baseline by calculating maximum fluorescence minus minimum fluorescence and plotted as response (fold) over the baseline versus log ([…] concentration). The EC50 was determined using a 4-parameter logistic curve fit in Graphpad Prism 9.

Sequence of TRPML1 (Q9GZU1 17-572 limits assumed): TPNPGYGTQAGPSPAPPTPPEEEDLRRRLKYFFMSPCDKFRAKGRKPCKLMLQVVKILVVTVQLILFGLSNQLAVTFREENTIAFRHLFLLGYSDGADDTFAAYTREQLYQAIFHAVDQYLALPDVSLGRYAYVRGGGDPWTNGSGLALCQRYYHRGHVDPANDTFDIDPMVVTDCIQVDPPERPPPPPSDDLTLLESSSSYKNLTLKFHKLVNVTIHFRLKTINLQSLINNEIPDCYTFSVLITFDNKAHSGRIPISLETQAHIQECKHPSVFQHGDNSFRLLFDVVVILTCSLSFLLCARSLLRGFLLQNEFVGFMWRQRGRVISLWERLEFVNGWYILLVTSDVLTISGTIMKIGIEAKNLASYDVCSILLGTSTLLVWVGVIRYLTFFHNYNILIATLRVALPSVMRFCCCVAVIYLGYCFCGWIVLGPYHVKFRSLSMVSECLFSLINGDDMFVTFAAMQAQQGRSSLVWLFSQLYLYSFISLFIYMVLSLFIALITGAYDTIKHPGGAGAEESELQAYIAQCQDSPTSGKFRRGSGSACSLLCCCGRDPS

EC50 | Compound
5940 nM | Cc1cnn(C)c1CN(C)c1ccccc1NS(=O)(=O)c1ccc(S(=O)(=O)N(C)C)cc1 [Compound 80, N1-(2-(((1,4-dimethyl-1H-pyrazol-5-yl)methyl)(methyl)amino)phenyl)-N4,N4-dimethylbenzene-1,4-disulfonamide]
3720 nM | CN(CC1CCOC1)c1ccccc1NS(=O)(=O)c1ccc(S(=O)(=O)N(C)C)cc1 (centres unmarked) [Compound 112, N1,N1-dimethyl-N4-(2-(methyl((tetrahydrofuran-3-yl)methyl)amino)phenyl)benzene-1,4-disulfonamide]
2140 nM | Cc1ncc(F)cc1CN(C)c1ccccc1NS(=O)(=O)c1ccc(S(=O)(=O)N(C)C)cc1 [Compound 75, N1-(2-(((5-fluoro-2-methylpyridin-3-yl)methyl)(methyl)amino)phenyl)-N4,N4-dimethylbenzene-1,4-disulfonamide]
2100 nM | CN(CC1CCOCC1)c1ccccc1NS(=O)(=O)c1ccc(S(=O)(=O)N(C)C)cc1 [Compound 11, N1,N1-dimethyl-N4-(2-(methyl((tetrahydro-2H-pyran-4-yl)methyl)amino)phenyl)benzene-1,4-disulfonamide]
510 nM | CC(C)CN(C)c1ccccc1NS(=O)(=O)c1ccc(S(=O)(=O)N(C)C)cc1 [Compound 7, N1-(2-(isobutyl(methyl)amino)phenyl)-N4,N4-dimethylbenzene-1,4-disulfonamide]
2140 nM | CN(c1cc(C#N)ccc1NS(=O)(=O)c1ccc(S(=O)(=O)N(C)C)cc1)C1CCCCC1 [Compound 88, N1-(4-cyano-2-(cyclohexyl(methyl)amino)phenyl)-N4,N4-dimethylbenzene-1,4-disulfonamide]
28500 nM | CN(Cc1cnc2n1CCC2)c1ccccc1NS(=O)(=O)c1ccc(S(=O)(=O)N(C)C)cc1 [Compound 79, N1-(2-(((6,7-dihydro-5H-pyrrolo[1,2-a]imidazol-3-yl)methyl)(methyl)amino)phenyl)-N4,N4-dimethylbenzene-1,4-disulfonamide]
> 10000 nM | CCn1cnc(CN(C)c2ccccc2NS(=O)(=O)c2ccc(S(=O)(=O)N(C)C)cc2)c1 [Compound 44, N1-(2-(((1-ethyl-1H-imidazol-4-yl)methyl)(methyl)amino)phenyl)-N4,N4-dimethylbenzene-1,4-disulfonamide]
2370 nM | CCCN(C)c1ccccc1NS(=O)(=O)c1ccc(S(=O)(=O)N(C)C)cc1 [Compound 16, N1,N1-dimethyl-N4-(2-(methyl(propyl)amino)phenyl)benzene-1,4-disulfonamide]
11000 nM | CN(C)S(=O)(=O)c1ccc(S(=O)(=O)Nc2ccccc2N(C(=O)C(F)(F)F)C2CCCCC2)cc1 [Compound 63, N-cyclohexyl-N-(2-((4-(N,N-dimethylsulfamoyl)phenyl)sulfonamido)phenyl)-2,2,2-trifluoroacetadmie]
6880 nM | Cc1cnccc1CN(C)c1ccccc1NS(=O)(=O)c1ccc(S(=O)(=O)N(C)C)cc1 [Compound 58, N1,N1-dimethyl-N4-(2-(methyl((3-methylpyridin-4-yl)methyl)amino)phenyl)benzene-1,4-disulfonamide]
2240 nM | CN(Cc1cn(C)cn1)c1ccccc1NS(=O)(=O)c1ccc(S(=O)(=O)N(C)C)cc1 [Compound 59, N1,N1-dimethyl-N4-(2-(methyl((1-methyl-1H-imidazol-4-yl)methyl)amino)phenyl)benzene-1,4-disulfonamide]
240 nM | CN(c1c(Cl)cccc1NS(=O)(=O)c1ccc(S(=O)(=O)N(C)C)cc1)C1CCCCC1 [Compound 38, N1-(3-chloro-2-(cyclohexyl(methyl)amino)phenyl)-N4,N4-dimethylbenzene-1,4-disulfonamide]
> 30000 nM | CN(CCC1COC1)c1ccccc1NS(=O)(=O)c1ccc(S(=O)(=O)N(C)C)cc1 [Compound 62, N1,N1-dimethyl-N4-(2-(methyl(2-(oxetan-3-yl)ethyl)amino)phenyl)benzene-1,4-disulfonamide]
2210 nM | CN(c1cc(F)ccc1NS(=O)(=O)c1ccc(S(=O)(=O)N(C)C)cc1)C1CCCCC1 [Compound 4, N1-(2-(cyclohexyl(methyl)amino)-4-fluorophenyl)-N4,N4-dimethylbenzene-1,4-disulfonamide]
6550 nM | Cc1nn(C)cc1CN(C)c1ccccc1NS(=O)(=O)c1ccc(S(=O)(=O)N(C)C)cc1 [Compound 50, N1-(2-(((1,3-dimethyl-1H-pyrazol-4-yl)methyl)(methyl)amino)phenyl)-N4,N4-dimethylbenzene-1,4-disulfonamide]

EC50 | Compound
> 30000 nM | CN(C)S(=O)(=O)c1ccc(S(=O)(=O)Nc2ccccc2N(C=O)Cc2cncs2)cc1 [Compound 61, N-(2-((4-(N,N-dimethylsulfamoyl)phenyl)sulfonamido)phenyl)-N-(thiazol-5-ylmethyl)formamide]
2180 nM | Cc1cccc(N(C)C2CCCCC2)c1NS(=O)(=O)c1ccc(S(=O)(=O)N(C)C)cc1 [Compound 36, N1-(2-(cyclohexyl(methyl)amino)-6-methylphenyl)-N4,N4-dimethylbenzene-1,4-disulfonamide]
2060 nM | CN(Cc1cscn1)c1ccccc1NS(=O)(=O)c1ccc(S(=O)(=O)N(C)C)cc1 [Compound 45, N1,N1-dimethyl-N4-(2-(methyl(thiazol-4-ylmethyl)amino)phenyl)benzene-1,4-disulfonamide]
1390 nM | CN(CC1CCCO1)c1ccccc1NS(=O)(=O)c1ccc(S(=O)(=O)N(C)C)cc1 (centres unmarked) [Compound 107, N1,N1-dimethyl-N4-(2-(methyl((tetrahydrofuran-2-yl)methyl)amino)phenyl)benzene-1,4-disulfonamide]
270 nM | CN(c1ccccc1NS(=O)(=O)c1ccc(S(=O)(=O)N(C)C)cc1)C1CCC(F)(F)CC1 [Compound 41, N1-(2-((4,4-difluorocyclohexyl) (methyl)amino)phenyl)-N4,N4-dimethylbenzene-1,4-disulfonamide]
3050 nM | Cc1ncsc1CN(C)c1ccccc1NS(=O)(=O)c1ccc(S(=O)(=O)N(C)C)cc1 [Compound 51, N1,N1-dimethyl-N4-(2-(methyl((4-methylthiazol-5-yl)methyl)amino)phenyl)benzene-1,4-disulfonamide]
810 nM | CN(CC1CCC(C)(C)OC1)c1ccccc1NS(=O)(=O)c1ccc(S(=O)(=O)N(C)C)cc1 (centres unmarked) [Compound 32, N1-(2-(((6,6-dimethyltetrahydro-2H-pyran-3-yl)methyl)(methyl)amino)phenyl)-N4,N4-dimethylbenzene-1,4-disulfonamide]
3460 nM | CCN(C)c1ccccc1NS(=O)(=O)c1ccc(S(=O)(=O)N(C)C)cc1 [Compound 9, N1-(2-(ethyl(methyl)amino)phenyl)-N4,N4-dimethylbenzene-1,4-disulfonamide]
330 nM | Cc1ccc(NS(=O)(=O)c2ccc(S(=O)(=O)N(C)C)cc2)c(N(C)C2CCCCC2)c1 [Compound 35, N1-(2-(cyclohexyl(methyl)amino)-4-methylphenyl)-N4,N4-dimethylbenzene-1,4-disulfonamide]
> 10000 nM | CN(C)CCN(C)c1ccccc1NS(=O)(=O)c1ccc(S(=O)(=O)N(C)C)cc1 [Compound 54, N1-(2-((2-(dimethylamino)ethyl)(methyl)amino)phenyl)-N4,N4-dimethylbenzene-1,4-disulfonamide]
> 30000 nM | CN(c1cccc(C#N)c1NS(=O)(=O)c1ccc(S(=O)(=O)N(C)C)cc1)C1CCCCC1 [Compound 86, N1-(2-cyano-6-(cyclohexyl(methyl)amino)phenyl)-N4,N4-dimethylbenzene-1,4-disulfonamide]
7450 nM | Cc1cc(CN(C)c2ccccc2NS(=O)(=O)c2ccc(S(=O)(=O)N(C)C)cc2)cc(C)n1 [Compound 48, N1-(2-(((2,6-dimethylpyridin-4-yl)methyl)(methyl)amino)phenyl)-N4,N4-dimethylbenzene-1,4-disulfonamide]
4360 nM | CN(CCCn1cccn1)c1ccccc1NS(=O)(=O)c1ccc(S(=O)(=O)N(C)C)cc1 [Compound 105, N1-(2-((3-(1H-pyrazol-1-yl)propyl)(methyl)amino)phenyl)-N4,N4-dimethylbenzene-1,4-disulfonamide]
> 10000 nM | CCOCCCN(C)c1ccccc1NS(=O)(=O)c1ccc(S(=O)(=O)N(C)C)cc1 [Compound 113, N1-(2-((3-ethoxypropyl)(methyl)amino)phenyl)-N4,N4-dimethylbenzene-1,4-disulfonamide]
880 nM | CN(Cc1ccc(F)cn1)c1ccccc1NS(=O)(=O)c1ccc(S(=O)(=O)N(C)C)cc1 [Compound 43, N1-(2-(((5-fluoropyridin-2-yl)methyl)(methyl)amino)phenyl)-N4,N4-dimethylbenzene-1,4-disulfonamide]

Compound | EC50
CN1CCC(N(C)c2ccccc2NS(=O)(=O)c2ccc(S(=O)(=O)N(C)C)cc2)CC1 [Compound 21, N1,N1-dimethyl-N4-(2-(methyl(1-methylpiperidin-4-yl)amino)phenyl)benzene-1,4-disulfonamide] | > 10000 nM
